The values below come from patent US20030045679A1, “Calcineurin modulators” (priority 2001, published 2003).

Where two headings read alike, the source gives them in different places.

Data set [1] can be described thus: Cytotoxicity of A23187 and hydrogen peroxide on stable transfectants, propidium iodide uptake by flow cytometry. The settings on record: Chinese hamster, Percent cytotoxicity, 4 μg/ml A23187. The procedure:
(§1) MATERIAL AND METHODS: Cell culture and treatment conditions. Chinese hamster HA-1 fibroblasts were maintained in Eagle's minimal essential medium supplemented with 8% heat inactivated fetal bovine serum, penicillin (100 units/ml) and streptomycin (100μg/ml). Cultures were grown in a humidified incubator atmosphere of 95% air and 5% CO2 at 37 °C.
(§2) Stress analyses. Control cells and lines 7, 10, and 15 were grown to log phase and equal confluency (75%). At this time, the cells were exposed to each stress agent and cytotoxicity measured. For the oxidative stress studies, a stock solution of hydrogen peroxide (30% w/w) was diluted in phosphate-buffered saline just prior to cell exposure. At the time of treatment, the HA-1 cultures were taken from the incubator and freshly diluted-peroxide added to the culture dishes. The cells were then returned to the incubator for the appropriate times.
(§3) Stable adapt78-overexpressing, vector control and non-transfected control HA-1 cells were exposed to 4 μg/ml calcium ionophore A23187 or […] for 60 minutes (A23187) or 90 minutes (hydrogen peroxide). Cytotoxicity was then determined by propidium iodide uptake using flow cytometry as follows. After treatment, monolayers were rinsed with PBS containing 3 mM EDTA, then covered with the same for 5 minutes at room temperature before suspending cells by gentle trituration. Cytotoxicity was then measured using propidium iodide and the stained cells analyzed by flow cytometry using a Becton Dickinson FAC Scan. The ModFit analytical software program was used to quantify the percentage of cytotoxicity.
(§4) Control cells and lines 7, 10, and 15 were grown to log phase and equal confluency (75%), then treated with 4 μg/ml A23187 and separately, 5 mM hydrogen peroxide. Cytotoxicity was then assessed by propidium iodide uptake using flow cytometry. Fold protection was calculated as the percent viability of cells compared with untransfected after subtracting out background (cells treated with solvent only). The average of untransfected percent viability was arbitrarily set at 1.0.
In general terms: In flow cytometry, cells or beads pass a laser one at a time.

Data set [2] has as its system HA-1 cells. Described as above. The settings on record: n = 4. The procedure:
as §1, §2, §3, §4

Data set [3] concerns HA-1 cells. As to conditions: stained 7 days later, cited from earlier work.
For data set [4], the system named is HA-1 cells. The settings on record: 160 μM hydrogen peroxide; cited from earlier work.

As for `CNc1ccc2oc(C[C@H]3O[C@@]4(CC[C@H]3C)O[C@H]([C@H](C)C(=O)c3ccc[nH]3)[C@H](C)C[C@H]4C)nc2c1C(=O)O` [A23187], the cytotoxicity at 60 min, 4 μg/ml is 48.2% in data set [1] (Untransfected HA-1 cells); 44% in data set [1] (Vector transfected HA-1 cells); 10.1% in data set [1] (adapt78 overexpressing Clone 7); 11.7% in data set [1] (adapt78 overexpressing Clone 10); 11.8% in data set [1] (adapt78 overexpressing Clone 15). Moreover, the “Fold protection +/− 1 S.D.” value is on record as 4.8 +/− 0.5 fold in data set [2] (4 μg/ml A23187, Clone 7 vs Untransfected); 4.1 +/− 1.0 fold in data set [2] (4 μg/ml A23187, Clone 10 vs Untransfected); 4.1 +/− 0.3 fold in data set [2] (4 μg/ml A23187, Clone 15 vs Untransfected); 1.0 +/− 0.4 fold in data set [2] (4 μg/ml A23187, Untransfected HA-1 cells (set at 1.0)); 1.1 +/− 0.3 fold in data set [2] (4 μg/ml A23187, Vector transfected HA-1 cells vs Untransfected).

`OO` [Peroxide, hydrogen peroxide]: the “Fold protection +/− 1 S.D.” value is given as 3.7 +/− 0.6 fold in data set [2] (5 mM hydrogen peroxide, Clone 10 vs Untransfected); 4.2 +/− 0.6 fold in data set [2] (5 mM hydrogen peroxide, Clone 15 vs Untransfected); 1.0 +/− 0.3 fold in data set [2] (5 mM hydrogen peroxide, Untransfected HA-1 cells (set at 1.0)); 1.0 +/− 0.4 fold in data set [2] (5 mM hydrogen peroxide, Vector transfected HA-1 cells vs Untransfected). Moreover, the “decrease in colony number compared with control” value in data set [3] (160 μM hydrogen peroxide for 5 hours) is listed as 79.5%; in data set [3] (400 μM hydrogen peroxide for 5 hours), 97.8%. Besides, the “cytotoxicity using trypan blue exclusion” value in data set [4] was “no associated cytotoxicity was observed”.
